Assay results as given in PubChem BioAssay AID1259407 (Chemical Carcinogenesis Research Information System (CCRIS), 2018).
Activity calls are given as the source filed them. How the calls were made is not given here.

Tested on: CCRIS mutagenicity, Ames/micronucleus/aberration tests
Experiment: CCRIS mutagenicity studies

How did the mutagenic call (Test System: AMES SALMONELLA TYPHIMURIUM, Strain/Indicator: TA100, Metabolic Activation: RAT,LIVER, HEPATOCYTES, PHENOBARBITAL, Method: PREINCUBATION) turn out when `O=P1(N(CCCl)CCCl)NCCCO1` (stereo not drawn) was run?
Its mutagenic call is “active; positive”.

And the mutagenic call (Test System: AMES SALMONELLA TYPHIMURIUM, Strain/Indicator: TA100, Metabolic Activation: S-9, Method: PREINCUBATION)?
Its mutagenic call is “active; positive”.

What about the mutagenic call (Test System: AMES SALMONELLA TYPHIMURIUM, Strain/Indicator: TA100, Metabolic Activation: S-9, Method: STANDARD PLATE) of the same molecule?
The mutagenic call was “active; positive”.

What about the mutagenic call (Test System: AMES SALMONELLA TYPHIMURIUM, Strain/Indicator: TA1535, Metabolic Activation: NONE, Method: SPIRAL ASSAY) of the same molecule?
Its mutagenic call is “active; positive”.

What about the mutagenic call (Test System: AMES SALMONELLA TYPHIMURIUM, Strain/Indicator: TA1535, Metabolic Activation: RAT (MALE), LIVER, HEPATOCYTES, AROCLOR 1254, Method: STANDARD PLATE) of the same molecule?
Its mutagenic call is “active; positive”.

And the mutagenic call (Test System: AMES SALMONELLA TYPHIMURIUM, Strain/Indicator: TA1535, Metabolic Activation: RAT (MALE), LIVER, HEPATOCYTES, Method: STANDARD PLATE)?
Its mutagenic call is “active; positive”.

And the mutagenic call (Test System: AMES SALMONELLA TYPHIMURIUM, Strain/Indicator: TA1535, Metabolic Activation: RAT (PREGNANT FEMALE), LIVER, HEPATOCYTES, AROCLOR 1254, Method: STANDARD PLATE)?
Its mutagenic call is “active; positive”.

What about the mutagenic call (Test System: AMES SALMONELLA TYPHIMURIUM, Strain/Indicator: TA1535, Metabolic Activation: RAT (PREGNANT FEMALE), LIVER, HEPATOCYTES, Method: STANDARD PLATE) of the same molecule?
The mutagenic call was “inactive; negative”.

And the mutagenic call (Test System: AMES SALMONELLA TYPHIMURIUM, Strain/Indicator: TA1535, Metabolic Activation: RAT, LIVER, HEPATOCYTES, PHENOBARBITAL, Method: PREINCUBATION)?
Its mutagenic call is “active; positive”.

And the mutagenic call (Test System: AMES SALMONELLA TYPHIMURIUM, Strain/Indicator: TA1535, Metabolic Activation: RAT, LIVER, S-9, AROCLOR 1254, Method: PREINCUBATION)?
Its mutagenic call is “active; positive”.

What about the mutagenic call (Test System: AMES SALMONELLA TYPHIMURIUM, Strain/Indicator: TA1535, Metabolic Activation: RAT, LIVER, S-9, AROCLOR 1254, Method: SPIRAL ASSAY) of the same molecule?
Its mutagenic call is “active; positive”.

And the mutagenic call (Test System: AMES SALMONELLA TYPHIMURIUM, Strain/Indicator: TA1535, Metabolic Activation: RAT, LIVER, S-9, PHENOBARBITAL AND ALPHA-NAPHTHOFLAVONE, Method: STANDARD PLATE)?
Its mutagenic call is “active; positive”.

And the mutagenic call (Test System: AMES SALMONELLA TYPHIMURIUM, Strain/Indicator: TA1535, Metabolic Activation: RAT, LIVER, S-9, PHENOBARBITAL, Method: STANDARD PLATE)?
Its mutagenic call is “active; positive”.

And the mutagenic call (Test System: AMES SALMONELLA TYPHIMURIUM, Strain/Indicator: TA1535, Metabolic Activation: RAT, LIVER, S-9, Method: STANDARD PLATE)?
The mutagenic call was “active; positive”.

And the mutagenic call (Test System: AMES SALMONELLA TYPHIMURIUM, Strain/Indicator: TA1537, Metabolic Activation: NONE, Method: SPIRAL ASSAY)?
Its mutagenic call is “inactive; negative”.

And the mutagenic call (Test System: AMES SALMONELLA TYPHIMURIUM, Strain/Indicator: TA1537, Metabolic Activation: NONE, Method: STANDARD PLATE)?
The mutagenic call was “inactive; negative”.

And the mutagenic call (Test System: AMES SALMONELLA TYPHIMURIUM, Strain/Indicator: TA1537, Metabolic Activation: RAT, LIVER, S-9, AROCLOR 1254, Method: SPIRAL ASSAY)?
Its mutagenic call is “inactive; negative”.

And the mutagenic call (Test System: AMES SALMONELLA TYPHIMURIUM, Strain/Indicator: TA1537, Metabolic Activation: S-9, Method: STANDARD PLATE)?
The mutagenic call was “inactive; negative”.

What about the mutagenic call (Test System: CHINESE HAMSTER V-79, Strain/Indicator: V-79/6-THIOGUANINE, Metabolic Activation: NONE, Method: SUSPENSION/PLATE) of the same molecule?
Its mutagenic call is “inactive; negative”.

What about the mutagenic call (Test System: CHINESE HAMSTER V-79, Strain/Indicator: V-79/6-THIOGUANINE, Metabolic Activation: RAT, LIVER, HEPATOCYTES, Method: SUSPENSION/PLATE) of the same molecule?
Its mutagenic call is “active; positive”.

What about the mutagenic call (Test System: E. COLI, Strain/Indicator: WP2 (HCR), Metabolic Activation: S-9, Method: STANDARD PLATE) of the same molecule?
Its mutagenic call is “active; positive”.

What about the mutagenic call (Test System: E. COLI, Strain/Indicator: WP2, Metabolic Activation: NONE, Method: FLUCTUATION (MICROTITER)) of the same molecule?
The mutagenic call was “active; positive”.

What about the mutagenic call (Test System: E. COLI, Strain/Indicator: WP2 UVRA, Metabolic Activation: HAMSTER, LIVER, S-9, AROCLOR 1254, Method: STANDARD PLATE) of the same molecule?
Its mutagenic call is “inactive; negative”.

And the mutagenic call (Test System: E. COLI, Strain/Indicator: WP2 UVRA, Metabolic Activation: HAMSTER, LIVER, S-9, Method: STANDARD PLATE)?
Its mutagenic call is “inactive; negative”.

What about the mutagenic call (Test System: E. COLI, Strain/Indicator: WP2 UVRA, Metabolic Activation: MOUSE, LIVER, S-9, AROCLOR 1254, Method: STANDARD PLATE) of the same molecule?
The mutagenic call was “inactive; negative”.

And the mutagenic call (Test System: E. COLI, Strain/Indicator: WP2 UVRA, Metabolic Activation: MOUSE, LIVER, S-9, Method: STANDARD PLATE)?
The mutagenic call was “inactive; negative”.

And the mutagenic call (Test System: E. COLI, Strain/Indicator: WP2 UVRA, Metabolic Activation: NONE, Method: FLUCTUATION (MICROTITER))?
Its mutagenic call is “active; positive”.

What about the mutagenic call (Test System: E. COLI, Strain/Indicator: WP2 UVRA, Metabolic Activation: NONE, Method: STANDARD PLATE) of the same molecule?
Its mutagenic call is “inactive; negative”.

And the mutagenic call (Test System: E. COLI, Strain/Indicator: WP2 UVRA, Metabolic Activation: RAT, LIVER, S-9, AROCLOR 1254, Method: STANDARD PLATE)?
Its mutagenic call is “inactive; negative”.

And the mutagenic call (Test System: E. COLI, Strain/Indicator: WP2 UVRA, Metabolic Activation: RAT, LIVER, S-9, Method: STANDARD PLATE)?
Its mutagenic call is “inactive; negative”.

What about the mutagenic call (Test System: MOUSE LYMPHOMA, Strain/Indicator: L5178Y (TK+/TK-), Metabolic Activation: NONE, Method: SUSPENSION/PLATE) of the same molecule?
Its mutagenic call is “active; positive”.

And the mutagenic call (Test System: UDS RAT HEPATOCYTES, Strain/Indicator: THY INCORP, Metabolic Activation: NONE, Method: AUTORADIOGRAPHY)?
Its mutagenic call is “active; positive”.

What about the mutagenic call (Test System: UDS RAT HEPATOCYTES, Strain/Indicator: THY INCORP, Metabolic Activation: NONE, Method: AUTORADIOGRAPHY (SERUM-FREE MEDIA)) of the same molecule?
Its mutagenic call is “active; positive”.
